Results published in patent US12630543B2 (priority 2019, dated 2026).

Test system: rice blast
Format: cell-based
Details: 1,000 μl of 2,000 ppm test solution on oatmeal culture medium; 8 mm rice blast disc; 25° C. for 7 days; elongation length of hyphae vs without treatment

With `COc1nn(-c2ccccn2)c(F)c1C(F)(F)F` [Example 2, 5-fluoro-3-methoxy-1-(2-pyridyl)-4-trifluoromethylpyrazole] the Preventive value was 80.
